Organism: Rattus norvegicus
Experiment: DrugMatrix - Regimen: Daily Repeat
Type: toxicity, organism-based, Sprague-Dawley
Design: regimen Daily Repeat, gender Male, age 6-8 weeks
Conditions: in vivo, po, 250 mg/kg, route oral GAVAGE, dose level High, […]; for ABSOLUTE BASOPHIL / ABSOLUTE EOSINOPHIL / ABSOLUTE LYMPHOCYTE / ABSOLUTE MONOCYTE / ABSOLUTE SEGMENTED NEUTROPHIL / BASOPHIL / EOSINOPHIL / ERYTHROCYTE COUNT / HEMATOCRIT / HEMOGLOBIN / LEUKOCYTE COUNT / LYMPHOCYTE / MEAN CORPUSCULAR HEMOGLOBIN / MEAN CORPUSCULAR HEMOGLOBIN CONCENTRATION / MEAN CORPUSCULAR VOLUME / MONOCYTE / NEUTROPHIL / NUCLEATED RED BLOOD CELLS / PLATELET COUNT: tissue Blood; for ALANINE AMINOTRANSFERASE / ALBUMIN / ALKALINE PHOSPHATASE / ASPARTATE AMINOTRANSFERASE / BLOOD UREA NITROGEN / CARBON DIOXIDE / CHLORIDE / CHOLESTEROL / CREATINE PHOSPHOKINASE / CREATININE / GLUCOSE / LACTATE DEHYDROGENASE / LIPASE / PHOSPHORUS / POTASSIUM / SODIUM / TOTAL BILIRUBIN / TOTAL PROTEIN / URIC ACID: tissue Plasma

## CC(C)C(Br)C(=O)NC(N)=O (stereo unspecified) [BROMISOVALUM]
72 h, time 3 day
  ABSOLUTE BASOPHIL: 0 CELLS/uL
  ABSOLUTE EOSINOPHIL: 0 CELLS/uL
  ABSOLUTE LYMPHOCYTE: 11820.33 CELLS/uL
  ABSOLUTE MONOCYTE: 38.33 CELLS/uL
  ABSOLUTE SEGMENTED NEUTROPHIL: 1174.67 CELLS/uL
  BASOPHIL: 0%
  EOSINOPHIL: 0%
  ERYTHROCYTE COUNT: 5.57 x10E6/uL
  HEMATOCRIT: 35.87%
  HEMOGLOBIN: 14.33 G/DL
  LEUKOCYTE COUNT: 13.03 x10E3/uL
  LYMPHOCYTE: 91%
  MEAN CORPUSCULAR HEMOGLOBIN: 25.8 pg
  MEAN CORPUSCULAR HEMOGLOBIN CONCENTRATION: 39.97 G/DL
  MEAN CORPUSCULAR VOLUME: 64.47 fL
  MONOCYTE: 0.33%
  NEUTROPHIL: 8.67%
  NUCLEATED RED BLOOD CELLS: 0 /100WBC
  PLATELET COUNT: 1177.33 x10E3/uL
  ALANINE AMINOTRANSFERASE: 70 u/L
  ALBUMIN: 4.17 G/DL
  ALKALINE PHOSPHATASE: 407.67 u/L
  ASPARTATE AMINOTRANSFERASE: 90.33 u/L
  BLOOD UREA NITROGEN: 15 mg/dL
  CARBON DIOXIDE: 27.33 mmol/L
  CHLORIDE: 103 MEQ/L
  CHOLESTEROL: 62.67 mg/dL
  CREATINE PHOSPHOKINASE: 210.67 u/L
  CREATININE: 0.26 mg/dL
  GLUCOSE: 148 mg/dL
  LACTATE DEHYDROGENASE: 109.33 u/L
  LIPASE: 10.33 u/L
  PHOSPHORUS: 11.9 mg/dL
  POTASSIUM: 6.86 MEQ/L
  SODIUM: 144.53 MEQ/L
  TOTAL BILIRUBIN: 0.2 mg/dL
  TOTAL PROTEIN: 5.67 G/DL
  URIC ACID: 1.67 mg/dL
120 h, time 5 day
  ABSOLUTE BASOPHIL: 0 CELLS/uL
  ABSOLUTE EOSINOPHIL: 46.33 CELLS/uL
  ABSOLUTE LYMPHOCYTE: 14344.33 CELLS/uL
  ABSOLUTE MONOCYTE: 108 CELLS/uL
  ABSOLUTE SEGMENTED NEUTROPHIL: 1434.67 CELLS/uL
  BASOPHIL: 0%
  EOSINOPHIL: 0.33%
  ERYTHROCYTE COUNT: 6.03 x10E6/uL
  HEMATOCRIT: 36.47%
  HEMOGLOBIN: 14.63 G/DL
  LEUKOCYTE COUNT: 15.93 x10E3/uL
  LYMPHOCYTE: 89.67%
  MEAN CORPUSCULAR HEMOGLOBIN: 24.23 pg
  MEAN CORPUSCULAR HEMOGLOBIN CONCENTRATION: 40.13 G/DL
  MEAN CORPUSCULAR VOLUME: 60.47 fL
  MONOCYTE: 0.67%
  NEUTROPHIL: 9.33%
  NUCLEATED RED BLOOD CELLS: 0 /100WBC
  PLATELET COUNT: 1192.33 x10E3/uL
  ALANINE AMINOTRANSFERASE: 64.67 u/L
  ALBUMIN: 4.43 G/DL
  ALKALINE PHOSPHATASE: 429.33 u/L
  ASPARTATE AMINOTRANSFERASE: 83.67 u/L
  BLOOD UREA NITROGEN: 13.33 mg/dL
  CARBON DIOXIDE: 25.67 mmol/L
  CHLORIDE: 104 MEQ/L
  CHOLESTEROL: 55 mg/dL
  CREATINE PHOSPHOKINASE: 157.67 u/L
  CREATININE: 0.2 mg/dL
  GLUCOSE: 140.67 mg/dL
  LACTATE DEHYDROGENASE: 110.67 u/L
  LIPASE: 9.67 u/L
  PHOSPHORUS: 9.97 mg/dL
  POTASSIUM: 6.56 MEQ/L
  SODIUM: 144.1 MEQ/L
  TOTAL BILIRUBIN: 0.2 mg/dL
  TOTAL PROTEIN: 6.27 G/DL
  URIC ACID: 1.53 mg/dL
